According to paper PMC4060991, “The Human Orphan Nuclear Receptor Tailless (TLX, NR2E1) Is Druggable” (PLoS ONE, 2014):

How the values were obtained:
[1] = system: GAL4 DBD vector; assay: Luciferase assay in HeLa cells transfected with empty GAL4 DBD vector (absence of TLX); format: cell-based, human; details: different concentrations, 16 h
Experimental: HeLa cells were maintained in D-MEM High Glucose (Hyclone) supplemented with 10% charcoal:dextran stripped FBS (Hyclone) and 1x Pen/Strep antibiotics (Life Technologies). Transient transfections were carried out in batches on 100,000 cells seeded into 12-well tissue culture plates. The co-transfections were performed using the TransFectin Lipid reagent (Bio-Rad) with approximately 10 ng/well of Gal4 DBD (gift from Phuong Nguyen, Fletterick Laboratory, UCSF) or GAL4-TLX LBD, 10 ng/well of renilla luciferase gene (Promega) for internal control and 200 ng/well of pGL4.35 reporter gene (containing an upstream Gal4 Upstream Activator Sequence and the luciferase gene, Promega). Approximately, 3 h after transfections, cells were treated with compounds of interest at different concentrations, or solvent (DMSO, 0.1%) in DMEM containing no fetal bovine serum or antibiotics. After a 16-h incubation, luciferase activities were assessed using Dual Luciferase assay reagent (Promega). Luciferase activities were calculated by normalizing firefly luciferase to renilla luciferase signal. […] Cells transfected with Gal4 DBD vector served as a control for TLX independent effects.

[2] = target: T1, COUP-TFII LBD (Homo sapiens, UniProt P24468); assay: GAL4 DBD-COUP-TFII LBD luciferase transactivation assay in HeLa cells; format: cell-based; details: 10 µM, 24 h, alone or in competition with 9-cis retinoic acid 5 µM
T1 construct: expressed in transfected cells; host or cells: HeLa
T1 sequence (P24468 177-403 limits assumed): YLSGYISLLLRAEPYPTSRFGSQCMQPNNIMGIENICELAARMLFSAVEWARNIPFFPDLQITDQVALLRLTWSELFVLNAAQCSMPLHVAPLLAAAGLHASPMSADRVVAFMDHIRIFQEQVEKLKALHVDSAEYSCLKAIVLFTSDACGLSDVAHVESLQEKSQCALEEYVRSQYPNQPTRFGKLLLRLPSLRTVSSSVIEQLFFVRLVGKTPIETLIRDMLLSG
Experimental: For the transactivation assays with the GAL4 DBD-COUP-TFII LBD plasmid ([28], gift from Dr. H. Eric Xu, Van Andel Institute), we transiently transfected in batches of 10^5 HeLa cells seeded into 12-well tissue culture plates vectors encoding either Gal4 DBD or Gal4 DBD-COUP-TFII LBD fusion (both at 100 ng/well), pGL4.35 reporter gene (200 ng/well) and renilla luciferase gene (100 ng/well, internal control). At 24 h after the transfections, cells were treated with either DMSO (0.1%, control) or compounds ccrp1, ccrp2 or ccrp3 at 10 µM, in the absence or the presence of 9-cis retinoic acid (RA, 5 µM). Following 24 h incubation, luciferase activities in each well were assessed as described above. Cells transfected with Gal4 DBD vector served as a control for COUP-TFII independent effects.

[3] = system: HeLa cells; assay: Toxicity observed in transfection experiments; format: cell-based, human; details: tested at different concentrations
Experimental: HeLa cells were maintained in D-MEM High Glucose (Hyclone) supplemented with 10% charcoal:dextran stripped FBS (Hyclone) and 1x Pen/Strep antibiotics (Life Technologies). Transient transfections were carried out in batches on 100,000 cells seeded into 12-well tissue culture plates. The co-transfections were performed using the TransFectin Lipid reagent (Bio-Rad) with approximately 10 ng/well of Gal4 DBD (gift from Phuong Nguyen, Fletterick Laboratory, UCSF) or GAL4-TLX LBD, 10 ng/well of renilla luciferase gene (Promega) for internal control and 200 ng/well of pGL4.35 reporter gene (containing an upstream Gal4 Upstream Activator Sequence and the luciferase gene, Promega). Approximately, 3 h after transfections, cells were treated with compounds of interest at different concentrations, or solvent (DMSO, 0.1%) in DMEM containing no fetal bovine serum or antibiotics. After a 16-h incubation, luciferase activities were assessed using Dual Luciferase assay reagent (Promega). Luciferase activities were calculated by normalizing firefly luciferase to renilla luciferase signal. Normalized luciferase activities were then represented relative to control (DMSO-treated cells). Cells transfected with Gal4 DBD vector served as a control for TLX independent effects.

[4] = target: T2, ERβ LBD (Homo sapiens, UniProt Q92731); assay: DSF on purified ERβ LBD; details: compound 500 µM; unliganded Tm ∼51°C
Target sequence in this assay (Q92731 261-530): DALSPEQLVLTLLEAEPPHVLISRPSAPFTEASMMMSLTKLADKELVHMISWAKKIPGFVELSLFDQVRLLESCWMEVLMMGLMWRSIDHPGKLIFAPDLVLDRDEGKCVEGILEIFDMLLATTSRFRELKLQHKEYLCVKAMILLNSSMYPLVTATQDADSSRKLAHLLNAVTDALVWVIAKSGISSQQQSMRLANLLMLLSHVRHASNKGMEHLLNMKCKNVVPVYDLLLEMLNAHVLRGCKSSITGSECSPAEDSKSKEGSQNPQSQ
Experimental: Protein stability was assessed with DSF in absence or presence of test compounds in a LightCycler 480 II qRT-PCR Detection System (Roche) in 384-well format. Sypro-Orange dye (Life Technologies) was used to monitor fluorescence, with filters for fluorescence excitation at 465 nm and for fluorescence emission at 610 nm. […] Tested sample mixtures were heated from 25°C to 96°C at a rate of 0.05°C/sec with 11 acquisitions per °C. Each compound was tested in duplicates. The melting temperature (Tm) for each sample was deduced by the ThermoQ Analytical software (HMRI) from the first derivative of the corresponding denaturation curve generated by the LightCycler 480 software. The same protocol was applied to investigate the stability of purified ERβ and LXRβ LBDs in presence or absence of the compounds. The optimal final concentrations for these experiments were 0.02 mg/mL for ERβ LBD and 0.20 mg/mL for LXRβ LBD. All DSF-based analyses were performed using freshly purified protein.

[5] = target: T2, ERβ LBD; assay: Gal4 DBD-ERβ LBD luciferase transactivation assay in HeLa cells; format: cell-based; design: vectors encoding either Gal4 DBD or Gal4 DBD-ERβ LBD fusion; expressed in transfected cells; host or cells: HeLa; details: 10 µM, 24 h, alone or in competition with E2 100 nM
Experimental: For ERβ, transient cotransfections of HeLa cells with vectors encoding either Gal4 DBD or Gal4 DBD-ERβ LBD fusion (gift from Dr. Stefan Andersson, University of Houston, deceased), both at 10 ng/well, constructs for Gal4-E1B promoter linked to a luciferase reporter gene (200 ng/well) and renilla luciferase gene (10 ng/well, internal control) were performed in batches of 10^5 cells seeded into 12-well tissue culture plates. At 24 h after the transfections, cells were treated with either DMSO (0.1%, control) or ccrp1; ccrp2 and ccrp3 at 10 µM, in the presence or absence of estradiol (E2, 100 nM), in the medium containing no fetal bovine serum. Following 24 h incubation, luciferase activities in each well were assessed as described above. Cells transfected with Gal4 DBD vector served as a control for ERβ independent effects.
Target sequence in this assay (Q92731 264-498 limits assumed): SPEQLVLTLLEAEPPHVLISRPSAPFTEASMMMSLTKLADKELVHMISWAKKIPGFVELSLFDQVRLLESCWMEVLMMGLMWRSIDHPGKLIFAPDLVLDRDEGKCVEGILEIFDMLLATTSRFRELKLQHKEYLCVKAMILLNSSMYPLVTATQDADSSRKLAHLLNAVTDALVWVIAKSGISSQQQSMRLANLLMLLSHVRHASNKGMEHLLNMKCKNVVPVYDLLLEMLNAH

[6] = target: TLX LBD (Homo sapiens, UniProt Q9Y466); assay: Differential scanning fluorimetry (DSF) on purified TLX LBD;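 also: thermal unfolding followed by Sypro-Orange fluorescence (excitation 465 nm, emission 610 nm) in 384-well plates, Tm taken from the first derivative of the denaturation curve, duplicate samples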; format: binding; design: cDNA fragments encoding human TLX LBD (a.a. 187–385) were cloned; His6 followed by TEV protease cleavage site (N); made in house; host or cells: E. coli BL21 (DE3) star; details: compound 500 µM; reference Tm 58.8±0.3°C with 5% DMSO
TLX LBD, sequence (Q9Y466 187-385): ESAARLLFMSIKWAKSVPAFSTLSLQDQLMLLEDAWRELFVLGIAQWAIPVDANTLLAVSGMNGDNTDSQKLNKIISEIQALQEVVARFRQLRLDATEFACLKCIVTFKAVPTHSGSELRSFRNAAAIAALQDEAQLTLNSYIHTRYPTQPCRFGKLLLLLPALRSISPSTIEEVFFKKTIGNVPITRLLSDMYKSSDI
Experimental: Protein stability was assessed with DSF in absence or presence of test compounds in a LightCycler 480 II qRT-PCR Detection System (Roche) in 384-well format. Sypro-Orange dye (Life Technologies) was used to monitor fluorescence, with filters for fluorescence excitation at 465 nm and for fluorescence emission at 610 nm. […] Each compound was tested in duplicates. The melting temperature (Tm) for each sample was deduced by the ThermoQ Analytical software (HMRI) from the first derivative of the corresponding denaturation curve generated by the LightCycler 480 software. […] All DSF-based analyses were performed using freshly purified protein.

SMILES | effect on luciferase activities in absence of TLX [1] | effect on COUP-TFII luciferase activity [2] | toxicity [3] | melting temperature shift of ERβ LBD [4] | effect on ERβ luciferase activity [5] | melting temperature (Tm) of TLX LBD in presence of compound [6] [°C]
CC(C)c1c(CN(C)C(C)Cc2ccccc2)n(C)n(-c2ccccc2)c1=O (stereo not drawn) [ccrp1, Famprofazone] | do not affect the luciferase activities | No effect on luciferase activity was detected | None of the three compounds displayed toxicity | Neither compound demonstrates any significant effect on the melting temperatures | No effect on luciferase activity was detected | 53.04±0.3
Cc1cc(C(=O)N2CCN(C(c3ccccc3)c3ccccc3)CC2)nn1C [ccrp2, 1-(1,5-dimethylpyrazole-3-carbonyl)-4-(diphenylmethyl)piperazine] | do not affect the luciferase activities | No effect on luciferase activity was detected | None of the three compounds displayed toxicity | Neither compound demonstrates any significant effect on the melting temperatures | No effect on luciferase activity was detected | 52.49±1.1
CC(=O)[C@H]1CC[C@H]2[C@@H]3C=CC4=CC(=O)CC[C@@]4(C)[C@@H]3CC[C@]12C [ccrp3, Dydrogesterone] | do not affect the luciferase activities | No effect on luciferase activity was detected | None of the three compounds displayed toxicity | Neither compound demonstrates any significant effect on the melting temperatures | No effect on luciferase activity was detected | 55.78±0.3
